Data set [1] is described as follows: Inhibition of rabbit stomach K+ stimulated H(+)/K(+) ATPase activity incubated for 30 mins in presence of ATP and KCl by malachite green reagent based assay. The format is tissue-based, Oryctolagus cuniculus.
Data set [2] in a line: Inhibition of gastric acid secretion in histamine induced Sprague-Dawley rat at 1 mg/kg, iv pretreated with compound for 15 mins followed by histamine dihydrochloride injection and measured after 3 hrs. The format is functional. As to conditions: 3.25 h, time 195 min.
The nature of data set [3]: AUC (0 to infinity) in Sprague-Dawley rat at 8 mg/kg, po by LC-MS/MS analysis. The format is ADME, organism-based. On the set-up: time infinity, dose 8 mg/kg, route po. Particulars: in vivo.
Data set [4] in a line: Cmax in Sprague-Dawley rat at 8 mg/kg, po by LC-MS/MS analysis. On the set-up: dose 8 mg/kg, route po. The format is ADME, organism-based. Particulars: in vivo.
The nature of data set [5]: Elimination half life in Sprague-Dawley rat at 8 mg/kg, po by LC-MS/MS analysis. The format is ADME, organism-based. Particulars: in vivo, read-out: beta t1/2 (converted).
The nature of data set [6]: Terminal half life in Sprague-Dawley rat at 2 mg/kg, iv by LC-MS/MS analysis. Particulars: in vivo, read-out: beta t1/2 (converted). The format is ADME, organism-based.
The nature of data set [7]: AUC (0 to infinity) in Sprague-Dawley rat at 2 mg/kg, iv by LC-MS/MS analysis. The format is ADME, organism-based. On the set-up: time infinity, dose 2 mg/kg, route iv. Particulars: in vivo.
The nature of data set [8]: Oral bioavailability in Sprague-Dawley rat at 8 mg/kg by LC-MS/MS analysis. The format is ADME, organism-based. As to conditions: in vivo.
A short description of data set [9]: Half life in Sprague-Dawley rat at 2 mg/kg, po. Particulars: in vivo. The format is ADME, organism-based.
Data set [10] can be described thus: Half life in Sprague-Dawley rat at 0.75 mg/kg, iv measured up to 24 hrs. The format is ADME, organism-based. Particulars: in vivo.
Data set [11] in a line: Oral bioavailability in Sprague-Dawley rat at 2 mg/kg. The format is ADME, organism-based. As to conditions: in vivo.
Data set [12] in a line: AUC (0 to infinity) in Sprague-Dawley rat at 2 mg/kg, po. The format is ADME, organism-based. On the set-up: time infinity, dose 2 mg/kg, route po. As to conditions: in vivo.
The nature of data set [13]: Cmax in Sprague-Dawley rat at 2 mg/kg, po. The format is ADME, organism-based. Further details: dose 2 mg/kg, route po. Particulars: in vivo.
Data set [14] in a line: AUC (0 to infinity) in Sprague-Dawley rat at 0.75 mg/kg, iv measured up to 24 hrs. As to conditions: in vivo. On the set-up: dose 0.75 mg/kg, time < 24 hrs, route iv. The format is ADME, organism-based.

The results in this text go back to ChEMBL document CHEMBL5143684, “Design, synthesis and biological evaluation of novel 5-methyl-2,4,5,6-tetrahydropyrrolo[3,4-c]pyrazole derivatives as potent potassium-competitive acid blockers” (Bioorg Med Chem, 2022).

Regarding `CN1Cc2nn(Cc3cccc(-c4cccc(C#N)c4)c3)c(-c3ccccc3F)c2C1`, the 50% inhibitory concentration (IC50) in [1] came to 396 nM.

Turning to `CN1Cc2nn(Cc3cccc([N+](=O)[O-])c3)c(-c3ccccc3F)c2C1`, the IC50 in data set [1] was found to be 140 nM.

On to `CN1Cc2nn(Cc3cccc(Cl)c3)c(-c3ccccc3F)c2C1`, for which the half-maximal inhibitory concentration (IC50) in data set [1] amounted to 354 nM.

`CN1Cc2nn(Cc3cccc(OCCC(=O)O)c3)c(-c3ccccc3F)c2C1`: the IC50 in data set [1] worked out at 1840 nM.

As for `CN1Cc2nn(Cc3cccc(-c4cccc(F)c4)c3)c(-c3ccccc3F)c2C1`, the IC50 in [1] worked out at 328 nM.

On to `CN1Cc2nn(Cc3cccc(-c4ccc(F)cc4)c3)c(-c3ccccc3F)c2C1`, for which, in data set [1], the half-maximal inhibitory concentration (IC50) stood at 340 nM.

For `CC(C)Oc1ccc(-c2c3c(nn2Cc2cccc(O)c2)CN(C)C3)cc1`, in [1], the concentration for half-maximal inhibition (IC50) is greater than 10000 nM.

Turning to `Cc1ccccc1-c1c2c(nn1Cc1cccc(O)c1)CN(C)C2`, the concentration for half-maximal inhibition (IC50) in data set [1] is 97.5 nM.

As for `CN1Cc2nn(Cc3cccc(-c4cccc(N(C)C)c4)c3)c(-c3ccccc3F)c2C1`, the half-inhibitory concentration (IC50) in data set [1] came out at 313 nM.

In the case of `CN1Cc2nn(Cc3cccc(N4CCOCC4)c3)c(-c3ccccc3F)c2C1`, the IC50 in data set [1] turned out to be 410 nM.

For the compound `CN1Cc2nn(Cc3ccccc3)c(-c3ccccc3F)c2C1`, the half-maximal inhibitory concentration (IC50) in data set [1] was 861 nM.

For the compound `CN1Cc2nn(Cc3ccoc3)c(-c3ccccc3F)c2C1`, the IC50 in data set [1] worked out at 3200 nM.

`CN1Cc2c(-c3ccccc3F)nn(S(=O)(=O)c3ccccc3)c2C1`: the IC50 in data set [1] was greater than 10000 nM.

In the case of `CN1Cc2nn(Cc3cccc(-c4cccc(C(F)(F)F)c4)c3)c(-c3ccccc3F)c2C1`, in data set [1], the IC50 stood at 440 nM.

For `CN1Cc2nn(Cc3cccc(-c4ccccc4F)c3)c(-c3ccccc3F)c2C1`, the half-inhibitory concentration (IC50) in [1] was 376 nM.

In the case of `COC(=O)c1ccccc1-c1c2c(nn1Cc1cccc(O)c1)CN(C)C2`, the concentration for half-maximal inhibition (IC50) in [1] was greater than 10000 nM.

As for `CN1Cc2nn(Cc3ccccc3F)c(-c3ccccc3F)c2C1`, the IC50 in data set [1] came out at 814 nM.

Turning to `CN1Cc2cc(S(=O)(=O)c3ccccc3)n(-c3ccccc3F)c2C1`, the IC50 in data set [1] amounted to 2110 nM.

For the compound `CN1Cc2nn(Cc3cc4ccccc4o3)c(-c3ccccc3F)c2C1`, the 50% inhibitory concentration (IC50) in [1] is 4300 nM.

As for `CN1Cc2nn(Cc3cccc(F)c3)c(-c3ccccc3F)c2C1`, the IC50 in data set [1] was determined as 342 nM.

With `CN1Cc2nn(Cc3cccc(O)c3)c(-c3cccc(Cl)c3)c2C1`, the IC50 in data set [1] came to 6350 nM.

Turning to `CN1Cc2nn(Cc3cccnc3)c(-c3ccccc3F)c2C1`, the IC50 in data set [1] came out at 674 nM.

In the case of `CN1Cc2nn(Cc3ccsc3)c(-c3ccccc3F)c2C1`, the IC50 in [1] was 2160 nM.

As to `CN1Cc2nn(S(=O)(=O)c3cccnc3)c(-c3ccccc3F)c2C1`, in [1], the 50% inhibitory concentration (IC50) is 1100 nM.

Turning to `CN1Cc2nn(Cc3cccc(-c4cccc(S(C)(=O)=O)c4)c3)c(-c3ccccc3F)c2C1`, the IC50 in data set [1] stood at 129 nM.

As to `CN1Cc2nn(Cc3cccc(O)c3)c(-c3ccc(O)cc3)c2C1`, the concentration for half-maximal inhibition (IC50) in [1] worked out at 3580 nM.

On to `CN1Cc2nn(Cc3cccc(O)c3)c(-c3ccccc3F)c2C1`, for which the half-inhibitory concentration (IC50) in [1] is 77.3 nM. The inhibition in vivo at 1 mg/kg in data set [2] came to 35.6%.

With `CN1Cc2nn(Cc3cccc(O)c3)c(-c3ccccc3Cl)c2C1`, the IC50 in data set [1] is 104 nM.

In the case of `CN1Cc2nn(Cc3cccc(OCC(N)=O)c3)c(-c3ccccc3F)c2C1`, the half-maximal inhibitory concentration (IC50) in data set [1] was 747 nM.

Take `CN1Cc2nn(S(=O)(=O)c3ccccc3)c(-c3ccccc3F)c2C1`: in [1], the 50% inhibitory concentration (IC50) was found to be 1030 nM.

As for `CN1Cc2nn(Cc3cccc(OCCC(N)=O)c3)c(-c3ccccc3F)c2C1`, the half-maximal inhibitory concentration (IC50) in data set [1] came to 389 nM.

For `CN1Cc2nn(Cc3ccc(F)cc3)c(-c3ccccc3F)c2C1`, the half-maximal inhibitory concentration (IC50) in data set [1] came to 585 nM.

On to `CN1Cc2nn(Cc3cccc(N)c3)c(-c3ccccc3F)c2C1`, for which, in data set [1], the IC50 is 894 nM.

`CN1Cc2nn(Cc3cccc(-c4cccc(C(N)=O)c4)c3)c(-c3ccccc3F)c2C1`: the AUC(0-inf) in [3] was 341 ng·h/mL; in [7], 520 ng·h/mL. This compound yielded a Cmax in data set [4] of 150 ng/mL. The half-life in [5] is 0.8 h; in [6] it was 0.49 h. The IC50 in data set [1] was determined as 60.5 nM. Moreover, in [8], the bioavailability was determined as 16.4%. Further, the inhibition in vivo at 1 mg/kg in data set [2] stood at 86.8%.

For `CN1Cc2nn(Cc3cccc(O)c3)c(-c3cccc(O)c3)c2C1`, the IC50 in [1] was determined as 1240 nM.

`CN1Cc2nn(Cc3cccc(O)c3)c(-c3ccccc3CO)c2C1`: in data set [1], the IC50 was greater than 10000 nM.

Take `CN1Cc2nn(Cc3cccc(O)c3)c(-c3cccnc3)c2C1`: in [1], the half-maximal inhibitory concentration (IC50) came to 4170 nM.

On to `CN1Cc2nn(Cc3cccc(O)c3)c(-c3cccnc3F)c2C1`, for which, in data set [1], the IC50 stood at 488 nM.

On to `CN1Cc2nn(Cc3cccc(O)c3)c(-c3ccccc3)c2C1`, for which the half-maximal inhibitory concentration (IC50) in [1] was determined as 1850 nM.

As for `COc1cccc(Cn2nc3c(c2-c2ccccc2F)CN(C)C3)c1`, the IC50 in data set [1] came out at 290 nM.

As for `Cc1ccc(-c2c3c(nn2Cc2cccc(O)c2)CN(C)C3)c(F)c1`, in data set [1], the IC50 was determined as 416 nM.

As for `CNCc1cc(-c2ccccc2F)n(S(=O)(=O)c2cccnc2)c1` [VONOPRAZAN], the half-life in [9] is 1.3 h; in [10] it was 1.2 h. In data set [11], this compound had a bioavailability of 10%. For the same compound, the AUC(0-inf) in data set [12] was 27 ng·h/mL; in data set [14] it was 99 ng·h/mL. Also, in data set [1], the IC50 is 49.1 nM. In addition, the inhibition in vivo at 1 mg/kg in [2] stood at 91%. In data set [13], this compound yielded a Cmax of 17 ng/mL.

The term IC50 denotes the concentration that gives 50% inhibition. What is called inhibition in vivo is the percentage by which the read-out fell short of the control. As a reminder, the AUC(0-inf) is the area under the concentration-time curve extrapolated to infinity. Higher therefore signals more exposure. As a reminder, the Cmax is the maximum level reached in the sampled fluid or tissue. In general, bioavailability refers to dose-corrected exposure relative to a reference, in per cent.
